Source: US6613762B2, “Gambogic acid, analogs and derivatives as activators of caspases and inducers of apoptosis” (Cytovia, Inc., priority 1999, dated 2003)

Experiments:
T47D cells = assay: Morphological change of T47D cells (phase contrast); assay type: cell-based, human; conditions: 2.5 μM
Procedure: In addition, apoptotic adherent cells in culture lose their ability to remain attached to the culture dish. The ability of gambogic acid to trigger these morphological changes in T47D cells was investigated.
60 mm culture dishes were seeded with 750,000 T47D cells and the cultures were incubated under normal growth conditions (complete medium with 10% FBS) for 24 h. The cells were then treated with 2.5 μM of gambogic acid and further incubated under normal growth conditions for 2 or 6 h. Morphological changes were documented by photographing the cells under phase contrast illumination.

[1] = system: poly(ADP)ribose polymerase (PARP) cleavage, HL-60 cells; assay: PARP cleavage western blot, HL-60 cells; assay type: cell-based, human; conditions: 2.5 μM, 2 h (FIG. 5B)
Procedure: Cleavage of the enzyme poly(ADP)ribose polymerase (PARP) by caspase-3 and related proteases is considered to be one of the molecular hallmarks of caspase-mediated apoptosis. Therefore, the ability of gambogic acid to induce PARP cleavage in four different human tumor cell lines (Jurkat cells, HL-60 cells, T47D cells and PC3 cells) was determined.
Cells were cultured in complete growth medium containing 10% FBS and treated with gambogic acid at concentrations of 2.5 μM or 5 μM for 2 to 4 h. Control cultures were treated with a drug vehicle (DMSO), or the well-characterized apoptosis inducer, staurosporine. At the end of the apoptosis induction period, the cells were harvested, washed once with PBS, quick-frozen on dry ice, and stored at −80° C. The cells were then lysed in a standard immunoblotting lysis buffer and samples of the lysates were electrophoresed on 4% to 20% gradient polyacrylamide gels. The proteins in the gels were then transferred to PVDF membranes and probed with a commercially-available rabbit polyclonal antibody to PARP.

[2] = system: caspase activity, T47D cells and MRC-5 cells; assay: Dose response of caspase activation in T47D versus normal fibroblasts MRC-5; assay type: cell-based, human; conditions: 2 h incubation, two-fold serial dilutions (FIG. 4)
Procedure: T47D cells and MRC-5 cells were maintained and harvested as described in Example 90. An aliquot of 45 μl of cells was added to each well of a 96-well microtiter plate. To determine the dose response of gambogic acid for inducing caspase activity, 5 μl of 20 μM gambogic acid in RPMI media was added to wells in triplicates. Two-fold serial dilutions were made for the lower concentrations. After incubation for 2 h, the samples were removed from the 5% CO2-95% humidity incubator and caspase activity was determined by addition of a fluorogenic substrate as described in Example 90.

HL-60 cells = assay: Inhibition of cell proliferation (GI50) and cell death (LC50), HL-60; assay type: cell-based; conditions: HL-60, 48 h
Procedure: T47D, ZR-75-1, PC-3, human prostate cancer cell line DU-145, human non-small cell lung cancer cell line A-549, human small cell lung cancer cell line SHP-77, HL-60 and MRC-5 cells were grown and harvested as in Example 90. […] The samples were mixed by agitation and incubated at 37° C. for 2-4 h in a 5% CO2-95% humidity incubator. […] This determines the possible background absorbance of the test compounds. No absorbance for gambogic acid or its analogs or derivatives was found at 490 nm. After the 2-4 h incubation, the samples were read for absorbance as above (ATest).
Baseline for GI50 (dose for 50% inhibition of cell proliferation) and LC50 (dose for 50% cell death) of initial cell numbers was determined by adding an aliquot of 90 μl of cells or 90 μl of media, respectively, to wells of a 96-well microtiter plate containing 10 μl of a 10% DMSO in RPMI-1640 media solution. […] The samples were mixed by agitation and incubated at 37° C. for 2-4 h in a 5% CO2-95% humidity incubator. Absorbance was read as above, (AT=0) defining absorbance for initial cell number used as baseline in GI50 determinations and (Amin) defining absorbance for media alone used as baseline in LC50 determinations.
GI50 (dose for 50% inhibition of cell proliferation)
LC50 (dose for 50% cell death)
50=100×[(ATest−Amin)/(AT=0−Amin)]

Jurkat T leukemia cells = assay: Apoptotic morphology in Jurkat cells; assay type: cell-based
Procedure: Jurkat T leukemia cells were grown in RPMI 1640 media (Life Technologies, Inc.)+10% FCS (Sigma Chemical Company) in a 5% CO2-95% humidity incubator at 37° C., and maintained at a cell density between 4 and 8×10^5 cells/ml. Cells were harvested at 200× g and resuspended at 1-2×10^6 cells/ml into RPMI 1640 media+10% FCS, and 3 ml of the cells was dispensed in each of three wells of a 6-well plate. One of the wells was treated with 10 μM caspase inhibitor cbz-Val-Asp-fink (Cytovia, Inc.; WO99/18781) and the plate was incubated at 37° C. in a 5% CO2-95% humidity incubator for 1 h prior to addition of gambogic acid. The wells with and without the caspase inhibitor were treated with 10 μM gambogic acid. The third well was treated with solvent (control cells). The plate was incubated at 37° C. in a 5% CO2-95% humidity incubator.
At 30 min. after addition of gambogic acid an aliquot of cells from each well was taken into the capillary slides and observed under a phase-contrast microscope.

HEL cells = conditions: reported by Asano et al., Phytochemistry 41:815-820 (1996); cited from earlier work
[3] = system: caspase activity, SHP-77 cells; assay: Caspase induction and its inhibition by caspase inhibitor (Example 97), SHP-77; assay type: cell-based, human; parameters: key to Inhibition of caspase activity by Inhibitor: The caspase activity detected was inhibited by the caspase inhibitor (+)
Procedure: T47D, ZR-75, PC3, SHP-77 and A-549 cells were maintained and harvested as described in Example 90. Cells were added to 96-well plates as described in Example 90. The cells were treated with 10 μM gambogic acid, in the presence and in the absence of 10 μM caspase inhibitor cbz-Val-Asp-fmk (Cytovia, Inc.; WO99/18781). The plate was incubated up to 24 h at 37° C in a 5% CO2-95% humidity incubator. Caspase activity was determined by addition of a fluorogenic substrate as described in Example 90.
Gambogic acid induced caspase activity in a ratio of greater than 2.5 (+) above untreated cell levels in all the tested cancer cell lines (Table IV). The caspase activity detected was inhibited by the caspase inhibitor (+), confirming that the fluorescent signal was due to caspase activity.

KB-V1 cell line = conditions: reported by Lin et al., Magn. Reson. Chem. 31:340-347 (1993); cited from earlier work

CC(C)=CCC[C@]1(C)C=Cc2c(O)c3c(c(CC=C(C)C)c2O1)O[C@]12C(=C[C@@H]4C[C@H]1C(C)(C)O[C@@]2(C/C=C(/C)C(=O)O)C4=O)C3=O [Example 1, Gambogic Acid]
Morphological change of T47D cells (T47D cells; 2 h (FIG. 1B)): many of the cells have taken on a rounded, phase-bright morphology
Morphological change of T47D cells (T47D cells; 6 h (FIG. 1C)): most of the cells in the culture are rounded up and are beginning to detach from the dish
PARP cleavage [1]: almost complete PARP cleavage
Sensitivity of T47D to induction of caspase activity relative to MRC-5 (dose response) [2]: more sensitive to induction of caspase activity than a normal fibroblast cell line MRC-5
GI50 (HL-60 cells; read-out: GI50 (dose for 50% inhibition of cell proliferation)): 500 nM
CC50 (HL-60 cells; read-out: LC50 (dose for 50% cell death)): 700 nM
Cell morphology of Jurkat cells in presence of caspase inhibitor (Jurkat T leukemia cells; 10 μM gambogic acid, 30 min, with 10 μM caspase inhibitor cbz-Val-Asp-fink (FIG. 3C)): prevented the morphological changes
Cell morphology of Jurkat cells (Jurkat T leukemia cells; 10 μM, 30 min (FIG. 3B)): blebbing and cellular fragmentation
Cytotoxicity to HEL cells (HEL cells): cytotoxic
Inhibition of caspase activity by Inhibitor ([3]; SHP-77, 10 μM gambogic acid with 10 μM caspase inhibitor cbz-Val-Asp-fmk): +
Caspase activity ([3]; SHP-77, 10 μM gambogic acid, up to 24 h): + (Gambogic acid induced caspase activity in a ratio of greater than 2.5 (+) above untreated cell levels)
Cytotoxicity against KB-V1 cell line (KB-V1 cell line): cytotoxic
